Laboratory results: US20250250265A1, “BENZOTHIAZOLE-PHENYLSULFONYL-PIPERIDINE ANALOGS AS ACTIVATORS OF NACYLPHOSPHATIDYLETHANOLAMINE HYDROLYZING PHOSPHOLIPASE D” (priority 2022, published 2025)
“Also recorded” adds a separate entry of the source. Each block holds one compound with its values, some of them ahead of it.

Tests used:
[1] = tested on: bone marrow-derived macrophages (BMDM); assay: Efferocytosis assay with bone marrow-derived macrophages and apoptotic Jurkat cells; assay type: cell-based, mouse; details: 10 μM, 6 h before assay
Method: Male C57BL6/j wild-type or Napepld^−/− mice were euthanized with isoflurane and hind legs were removed. Marrow was flushed from femurs and tibias using DMEM containing 4.5 g/L glucose and a 26-gauge needle. Cell suspensions were passed over a 40-μm filter, centrifuged at 500×g, and resuspended in 50 ml of DMEM containing 4.5 g/L glucose, 20% L-cell conditioned media, 10% heat-inactivated FBS, and 1% penicillin/streptomycin. 10 ml of cell suspension was plated into each of five 100-mm dishes and incubated for four days at 37° C. and 5% CO2. On day four, non-adherent cells and debris were aspirated from the plates and replaced with fresh media. After 7 days of differentiation, cells were harvested for use in experiments.
Assays were performed according to previously described protocols. See e.g., Doran et al. J. Clin. Invest. 127(11): 4075-4089 (2017); Proto et al., Immunity 49(4): 666-677 (2018). Bone marrow-derived macrophages were seeded at 0.25×10^6 cells/well in a non-tissue culture-treated 24-well plate and allowed to adhere overnight. Macrophages were treated with various compounds at a final concentration of 10 μM or DMSO as a vehicle for 6 hours prior to each experiment. Jurkat cells were exposed to UV light (254 nm) for 5 minutes to induce apoptosis and then incubated in a 37° C. incubator with 5% CO2 for 2 hours. Surveillance staining of these cells routinely yielded approximately 80-90% apoptosis (Annexin V+) using this method. Apoptotic Jurkat cells were labeled with either CellVue Claret (Millipore Sigma) or Cell Trace Violet (Invitrogen) per the manufacturer's instructions. After staining, cells were resuspended in macrophage medium at a density of […] and 500 μL of this suspension was added to the drug-containing media on the macrophages to achieve a cell ratio of 3:1 Jurkats: macrophages. After incubating for 45 minutes at 37° C. and 5% CO2, the medium was aspirated, and the macrophages were gently washed twice with PBS to remove unbound apoptotic cells. Macrophages were then removed from the plate using Cell Stripper (Sigma), washed, resuspended in staining buffer consisting of 2% FBS in PBS with 2 mM EDTA, and blocked with anti-mouse CD16/32 antibodies for 15 minutes on ice. After blocking, cells were pelleted and resuspended with F4/80. Cells were incubated for 45 minutes on ice in the dark, then washed and resuspended in staining buffer for analysis. Cells were analyzed using an Attune NxT cytometer (Thermo Fisher) and data were analyzed using FlowJo software to quantify the proportion of F4/80^+ macrophages that co-stained for apoptotic cells (% efferocytosis).

[2] = target: T1, recombinant mouse NAPE-PLD (Mus musculus, UniProt Q8BH82); assay: In vitro competition assay (LEI-401, VU233, VU534) on recombinant mouse Nape-pld; assay type: biochemical
T1 construct: hexahistidine (His6) (C); made in house; host or cells: E. coli
T1 sequence (Q8BH82 1-396): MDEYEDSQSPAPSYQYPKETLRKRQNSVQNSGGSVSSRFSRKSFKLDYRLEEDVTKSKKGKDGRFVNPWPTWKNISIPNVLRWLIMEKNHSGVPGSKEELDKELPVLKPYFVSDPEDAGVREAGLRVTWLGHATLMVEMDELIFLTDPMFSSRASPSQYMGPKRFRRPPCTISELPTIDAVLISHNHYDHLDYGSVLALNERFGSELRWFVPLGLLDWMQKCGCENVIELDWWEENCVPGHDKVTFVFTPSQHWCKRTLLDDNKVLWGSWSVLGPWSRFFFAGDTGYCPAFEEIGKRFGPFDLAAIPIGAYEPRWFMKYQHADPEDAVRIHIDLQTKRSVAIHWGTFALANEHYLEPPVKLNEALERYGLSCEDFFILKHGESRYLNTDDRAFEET
Method: A similar in vitro fluorescence Nape-pld activity assay was used for LEI-401 and VU233 competition assays except that this assay was performed using black-walled clear-bottom 96-well plates with 3.5 μM PED-A1 and no N-palmitoyl-dioleoyl-PE used as substrate and read in a BioTek Synergy H1 plate reader with the slope of the fluorescence signal from 0-4 min (linear phase) used as the assay readout. LEI-401, VU233, and VU534 were incubated for 1 h prior to addition of PED-A1. The Michaelis-Menten study used this same assay except with graded concentration of flame-NAPE.

[3] = target: T2, NAPE-PLD activity of RAW264.7 macrophages (Mus musculus, UniProt Q8BH82); assay: Cell-based NAPE-PLD activity in RAW264.7 macrophages (PED-A1 with orlistat); details: with 20 μM VU534 (FIG. 17C)
T2 construct: endogenous in cells; host or cells: RAW264.7
T2 sequence (Q8BH82 1-396): T1 sequence (Q8BH82 1-396)
Method: (§1) NAPE-PLD activity was measured in cells as previously described, except that FluoroBrite DMEM (Gibco A1896701) was used as media. See Zarrow et al., J. Lipid Res. 63(1): 100156 (2022). For RAW264.7 assays, PED-A1 (3.6 μM final) was used as the substrate with 10 μM orlistat added to inhibit PLA1 activity, while for HepG2 cells, flame-NAPE was used (with no orlistat added).

[4] = target: T3, NAPE-PLD activity of HepG2 cells (Homo sapiens, UniProt Q6IQ20); assay: Cell-based NAPE-PLD activity in HepG2 cells (flame-NAPE); details: 10 μM
T3 construct: endogenous in cells; host or cells: HepG2
T3 sequence (Q6IQ20 whole entry): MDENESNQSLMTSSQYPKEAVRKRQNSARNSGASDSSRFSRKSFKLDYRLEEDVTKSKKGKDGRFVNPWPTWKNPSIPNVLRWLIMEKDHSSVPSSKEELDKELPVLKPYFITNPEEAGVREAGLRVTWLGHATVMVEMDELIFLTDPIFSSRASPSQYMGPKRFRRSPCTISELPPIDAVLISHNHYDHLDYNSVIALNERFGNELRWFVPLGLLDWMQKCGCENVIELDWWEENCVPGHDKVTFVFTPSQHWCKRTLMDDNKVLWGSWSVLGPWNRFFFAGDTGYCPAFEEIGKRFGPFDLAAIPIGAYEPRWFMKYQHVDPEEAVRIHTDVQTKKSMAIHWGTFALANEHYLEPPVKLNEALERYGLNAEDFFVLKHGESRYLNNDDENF
Method: In vitro models of the hepatic steatosis of non-alcoholic fatty liver disease (NAFLD) are well-established, with the primary method being incubation of primary human hepatocytes or hepatocyte cell lines such as HepG2, HuH7, HepaRG, with oleic acid and palmitic acid for 24 to 48 h, then measuring the resulting steatosis, lipid peroxidation, apoptosis, and inflammatory gene expression. Using flame-NAPE to measure NAPE-PLD activity in the human hepatoma HepG2 cell line, the experimental data confirmed that VU534 activated NAPE-PLD in human cells (AC50 940 nM; max % bA 155%). Bithionol (10 μM) reduced HepG2 flame-NAPE hydrolysis by >67%.
as §1

[5] = target: T4, NAPE-PLD activity in primary BMDMϕ (Mus musculus, UniProt Q8BH82); assay: NAPE-PLD activity in primary bone marrow derived macrophages; assay type: cell-based; details: VU534 at 10 μM (FIG. 5)
T4 construct: endogenous in cells; host or cells: primary bone-marrow-derived macrophages (C57BL6/j mice)
T4 sequence (Q8BH82 1-396): T1 sequence (Q8BH82 1-396)

SMILES: O=C(O)CCCCCCCCCCCNC(=O)NC12CC3CC(CC(C3)C1)C2 [AUDA, 12-[[(tricyclo[3.3.1.13,7]dec-1-ylamino)carbonyl]amino]-dodecanoic acid, reference compound]
effect on efferocytosis by wild-type BMDM [1]: Neither AUDA nor TPPU significantly enhanced efferocytosis

inhibition of mouse NAPE-PLD activity at 100 μM ([2]; 100 μM): nearly complete inhibition
SMILES: O=C(NCC1CC1)c1cc(N2CC[C@H](O)C2)nc(N2CCC[C@@H](c3ccccc3)C2)n1 [LEI-401, reference compound]
inhibition of mouse NAPE-PLD activity ([2]; graded concentrations (FIG. 19C)): inhibited mouse NAPE-PLD activity in a concentration-dependent manner

SMILES: CCC(=O)N1CCC(NC(=O)Nc2ccc(OC(F)(F)F)cc2)CC1 [TPPU, N-[1-(1-Oxopropyl)-4-piperidinyl]-N′-[4-(trifluoromethoxy)phenyl]urea, reference compound]
effect on efferocytosis by wild-type BMDM [1]: Neither AUDA nor TPPU significantly enhanced efferocytosis

reduction of HepG2 flame-NAPE hydrolysis [4]: > 67% | effect on NAPE-PLD activity in primary BMDM [5]: inhibits NAPE-PLD activity
SMILES: Oc1c(Cl)cc(Cl)cc1Sc1cc(Cl)cc(Cl)c1O [bithionol, reference compound]
effect on increase in RAW264.7 NAPE-PLD activity induced by 20 μM VU534 [3]: blocked in a concentration-dependent manner; also recorded: blocks increased Nape-pld activity | effect on efferocytosis by wild-type BMDM [1]: markedly reduced efferocytosis | effect on efferocytosis by wild-type BMDM ([1]; listed as Bith): reduced efferocytosis
